Here are results for nine compounds from patent publication US7754864B2, “Tyrosinase activity controlling agent, process for producing the same and external preparation containing the same” (National Institute of Advanced Industrial Science and …, priority 2002, dated 2010).

The test system of experiment [1] is tyrosinase (derived from mushroom, SIGMA). Kind of experiment: Tyrosinase inhibitory activity using proline, pyrocatechol as substrate. The experiment is classed as biochemical. The conditions noted are these: pyrocatechol (catechol) as substrate, absorbance 525 nm.
Experiment [2] shares this test system. Kind of experiment: Tyrosinase inhibitory activity using proline, phenol as substrate. The experiment is classed as biochemical. The conditions noted are these: for tyrosinase inhibitory activity: phenol as substrate, absorbance 525 nm. Here is the method:
The tyrosinase inhibitory activity of an undecylenic acid sugar ester was determined using phenol as a substrate, by a modification of the method using pyrocatechol.

Experiment [3] has the same test system. Description: Tyrosinase activation promoting effect, phenol as substrate in the presence of proline. The conditions noted are these: FIG. 10. The experiment is classed as biochemical. Here is the method: Ascorbic acid and ascorbic acid derivatives were used as test substances for measuring tyrosinase activation promoting effects, using phenol as a substrate in the presence of proline.
Phenol is hydroxylated by tyrosinase, and at that time requires a hydrogen donor. The produced pyrocatechol is oxidized by tyrosinase to form an orthoquinone. The orthoquinone formed is quantitated in the presence of proline, to determine the tyrosinase activity.
Specifically, the measurement was carried out as follows. Forty microliters of 0.749 M L-proline dissolved in 0.1 M phosphate buffer at pH 7.5, 40 μl of 0.037 M phenol, and 1.41 ml of one of test substance solutions at various concentrations were stirred in a cuvette for absorbance measurement. A solution (10 μl) of 350 μg/ml of tyrosinase (derived from mushroom, SIGMA) was added, and the absorbance change was measured with stirring for 15 minutes at 525 nm, to determine the tyrosinase activity. […]

The next experiment concerns Mouse melanoma B16 cells. Kind of experiment: Evaluation of melanogenesis inhibitory effect using mouse melanoma cells. The experiment is classed as cell-based. The conditions noted are these: melanin production per cell, FIG. 4. Here is the method: Mouse melanoma B16 cells (3.6×10^5) were added to a 75 cm^2 culture flask containing 15 ml of D-MEM culture medium supplemented with 10% FCS, and incubated overnight at 37° C. under 5% carbon dioxide gas to adhere the cells. The culture medium was changed to 15 ml of 10% FCS-supplemented D-MEM culture medium containing one of 0.1% DMSO solutions of arbutin or 6-O-(10-undecylenoyl) arbutin obtained in Example 1-1 at various concentrations. The incubation was continued for two more days under the same conditions. The culture medium was again changed to 15 ml of the 0.1% DMSO solution-containing culture medium, and incubation was continued for two more days under the same conditions. After incubation, the cells were recovered, and the wet weight of the cells was measured. After the wet weight measurement, pellets of the cells were suspended in MilliQ water to a total volume of 700 μl. […] The absorbance (405 nm) was then measured. […] The melanin production per cell was indicated as absorbance at 405 nm/cell wet weight (μg). The melanogenesis inhibitory effects of arbutin undecylenate or arbutin at each concentration was determined, with the melanin production per cell without addition of arbutin or arbutin undecylenate being taken as 100%.

A value given as a limit tells only on which side of the number the result lay.

On to Sucrose undecylenic acid ester, for which the tyrosinase inhibitory activity entry in experiment [1] and in experiment [2] was “inhibit tyrosinase activity” throughout. Regarding Trehalose oleate, the tyrosinase inhibitory activity result in experiment [2] is on record as “not inhibit tyrosinase activity”. Take `OC[C@H]1O[C@@H](Oc2ccc(O)cc2)[C@H](O)[C@@H](O)[C@@H]1O` [Arbutin]: the tyrosinase inhibitory activity entry in experiment [1] and in experiment [2] was “inhibit tyrosinase activity” each time. The “tyrosinase inhibitory activity, phenol substrate compared with catechol substrate” value in experiment [2] (phenol vs catechol substrate, FIG. 6) is “higher inhibitory activity against a phenol substrate than against a catechol substrate”.

As for `CCCCCCCCCCCCCCCC(=O)OCC(O)C1OC(=O)C(O)=C1O` (stereo not shown) [Ascorbic acid palmitic ester, ascorbic acid-6-palmitate], in experiment [3], the “concentrations exhibiting tyrosinase activity promoting effects” value is given as ≤ 10^−4 M. Consider trehalose undecylenic acid ester, for which the tyrosinase inhibitory activity entry is reported as “inhibition of tyrosinase” in experiment [1] and “tyrosinase was inhibited” in experiment [2]. `O=C1O[C@H]([C@@H](O)CO)C(O)=C1O` [ascorbic acid, L-ascorbic acid]: the “concentrations exhibiting tyrosinase activity promoting effects” value in experiment [3] is ≤ 10^−4 M.

`C=CCCCCCCCCC(=O)O` [Undecylenic acid]: in experiment [1], the tyrosinase inhibitory activity entry is “inhibit tyrosinase activity”.

For the compound Trehalose diundecylenic acid ester, in experiment [1], the tyrosinase inhibitory activity result is “not inhibit tyrosinase activity”. For the compound `C=CCCCCCCCCC(=O)OC[C@H]1O[C@@H](Oc2ccc(O)cc2)[C@H](O)[C@@H](O)[C@@H]1O` [arbutin undecylenate, 6-O-(10-undecylenoyl)arbutin], the “melanogenesis inhibitory effect relative to arbutin” value with Mouse melanoma B16 cells is on record as “about 100 times”.
